Laboratory results published in US20260327211A1, “MODULATORS OF A POTASSIUM CHANNEL AND OF TRPV1 CHANNEL AND USES THEREOF” (Bsense Bio Therapeutics Ltd., priority 2023, published 2026).

Legend:
rats = test: Rotarod assay (PSPP); type: in vivo, rat; settings: up to 300 mg/kg, male and female, 1-6 hours post-dose
From the text: Animals: 50 male and 50 female Sprague Dawley rats from Envigo (Frederick, MD) were used in the study. Male animals were received at body weights between approximately 200-215 grams, and female animals between 175-205 grams. All animals were housed 3 per cage (15.55×13.63×8.39 inches) and acclimated to the vivarium for 6-9 days prior to testing. All cages contained BedO'Cob® bedding with Nylabones® for enrichment. All rats were examined, handled, and weighed prior to initiation of the study to ensure adequate health and suitability. During the study, 12/12 light/dark cycles were maintained. The room temperature was maintained between […] and 23° C. with relative humidity maintained around 50%. Chow (LabDiet 5001, LabDiet, St. Louis, MO, USA) and water were provided ad libitum except where specified below. Testing was performed during the animal's light cycle phase (between 6 am and […]). Body weights were recorded prior to baseline assessment. Latency to fall off the rotating rod was the primary measure of performance.
Training: Each trial on the rotarod was identical, a 5 second ramp from 0-17 RPM followed by a period of constant velocity at 17 RPM for up to 40 seconds, for a total trial time of […].
Animals ran three training trials on Day 1 with a 30 minutes interval between training trials. […] The outcome measured was latency to fall off the rotating rod. […]

HepG2 cells = test: HepG2 toxicity, ATPlite; type: cell-based, human; settings: up to limit of solubility
Protocol: Cell culture: HepG2 cell-line cells were cultured in EMEM (ATCC 30-2033) medium supplemented with 10% fetal bovine serum (Biological Industries) in a humidified 5% CO2 incubator at 37° C.
ATPlite™ 1step Kit: ATPlite™ 1step kit (PerkinElmer) was used in a 384-wells format to assess potential liver toxicity using HepG2 cells. This is an ATP detection system based on firefly luciferase luminescence for the quantitative evaluation of proliferation and cytotoxicity of cells. ATP is a marker for cell viability because it is present in all metabolically active cells and its concentration declines very rapidly when the cells undergo necrosis or apoptosis.
According to an optimization process done to achieve uniform and consistent screening condition of molecules, the following protocol was established: Cells were seeded in 384-well, black-walled, clear-bottomed, at a density of 4000 cells per well […] and incubated overnight in their normal growth medium. On day two (48 hours before viability measurement), the tested compounds and the positive control were applied to the wells according to the plate design. […] 48 hours later, reconstituted lyophilized substrate solution was added to each well and the sealed 384-well microplate was mixed for 2 minutes at 1100 rpm in an orbital microplate and plates were incubated for 10 minutes in the dark at room temperature. Right after, luminescence was measured in the Tecan plate reader. To estimate the LD50 and LD25 values the data was fitted to sigmoidal regression using Prism-GraphPad. […]

nAChR(a4/b2) = target: T1, nAChR(a4/b2) (Homo sapiens, UniProt P17787+P43681); test: Functional selectivity panel, nAChR(a4/b2); type: biochemical; settings: up to 10 micromolar
T1 construct: Eurofins DiscoverX functional panel cells
Protocol: (§1) A broad panel of 78 recombinant targets was tested for pharmacologic activity in vitro through a variety of functional assays (Eurofins DiscoverX, USA), as part of the National Institute of Neurological Disorders and Stroke (NINDS) Preclinical Screening Platform for Pain (PSPP) program. The biological targets for the in vitro profiling have been selected based on avoiding opioid receptor stimulation and targets known to be associated with adverse events or targeted by drugs of abuse. […] For each test, a reference compound was evaluated at the target of interest as a positive control.

MATE1 = test: Transporter substrate, MATE1; type: in vitro ADME; settings: role: substrate
Protocol: (§2) Additionally, compound 760 was tested for its capability to act as a transporter substrate for various transporters, and was not found to be a transporter substrate for any of the tested transporters.

Vasopressin 1-2 = test: Functional screening panel, Vasopressin 1-2; type: biochemical; settings: up to 10 micromolar
Protocol: as §1

OAT1 = OAT1 (Homo sapiens, UniProt Q4U2R8); test: Transporter substrate, OAT1; type: in vitro ADME; settings: role: substrate
Protocol: as §2

T1 sequence (P43681 27-627): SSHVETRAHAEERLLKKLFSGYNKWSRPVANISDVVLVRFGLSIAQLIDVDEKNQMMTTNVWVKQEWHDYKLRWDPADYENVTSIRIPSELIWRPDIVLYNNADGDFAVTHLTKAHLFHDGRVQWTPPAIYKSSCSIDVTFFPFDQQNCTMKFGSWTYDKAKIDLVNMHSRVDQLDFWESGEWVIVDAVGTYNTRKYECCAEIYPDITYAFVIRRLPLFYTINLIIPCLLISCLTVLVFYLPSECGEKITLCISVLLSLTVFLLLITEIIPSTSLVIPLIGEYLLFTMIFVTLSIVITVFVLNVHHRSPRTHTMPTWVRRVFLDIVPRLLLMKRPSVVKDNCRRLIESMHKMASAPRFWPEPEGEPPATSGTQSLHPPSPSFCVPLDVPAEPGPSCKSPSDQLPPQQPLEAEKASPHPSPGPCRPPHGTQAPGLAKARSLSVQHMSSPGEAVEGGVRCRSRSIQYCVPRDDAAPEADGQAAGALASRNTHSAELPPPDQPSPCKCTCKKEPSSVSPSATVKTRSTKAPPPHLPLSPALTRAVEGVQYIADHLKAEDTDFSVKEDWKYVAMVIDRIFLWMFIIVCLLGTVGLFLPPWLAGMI
T1 sequence (P17787 26-502): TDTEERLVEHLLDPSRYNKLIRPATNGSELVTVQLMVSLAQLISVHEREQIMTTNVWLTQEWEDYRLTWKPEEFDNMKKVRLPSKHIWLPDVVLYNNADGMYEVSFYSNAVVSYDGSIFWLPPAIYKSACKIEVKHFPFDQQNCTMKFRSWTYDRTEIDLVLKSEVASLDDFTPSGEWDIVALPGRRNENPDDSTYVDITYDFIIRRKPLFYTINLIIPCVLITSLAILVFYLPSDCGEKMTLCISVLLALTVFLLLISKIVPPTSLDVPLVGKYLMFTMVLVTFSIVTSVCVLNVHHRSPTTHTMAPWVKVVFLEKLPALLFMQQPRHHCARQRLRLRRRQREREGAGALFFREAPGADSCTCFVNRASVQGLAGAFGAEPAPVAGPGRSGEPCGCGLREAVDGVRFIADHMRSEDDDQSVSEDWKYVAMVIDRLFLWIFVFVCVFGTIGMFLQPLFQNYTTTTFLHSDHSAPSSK
Chain of OAT1 (Q4U2R8 whole entry): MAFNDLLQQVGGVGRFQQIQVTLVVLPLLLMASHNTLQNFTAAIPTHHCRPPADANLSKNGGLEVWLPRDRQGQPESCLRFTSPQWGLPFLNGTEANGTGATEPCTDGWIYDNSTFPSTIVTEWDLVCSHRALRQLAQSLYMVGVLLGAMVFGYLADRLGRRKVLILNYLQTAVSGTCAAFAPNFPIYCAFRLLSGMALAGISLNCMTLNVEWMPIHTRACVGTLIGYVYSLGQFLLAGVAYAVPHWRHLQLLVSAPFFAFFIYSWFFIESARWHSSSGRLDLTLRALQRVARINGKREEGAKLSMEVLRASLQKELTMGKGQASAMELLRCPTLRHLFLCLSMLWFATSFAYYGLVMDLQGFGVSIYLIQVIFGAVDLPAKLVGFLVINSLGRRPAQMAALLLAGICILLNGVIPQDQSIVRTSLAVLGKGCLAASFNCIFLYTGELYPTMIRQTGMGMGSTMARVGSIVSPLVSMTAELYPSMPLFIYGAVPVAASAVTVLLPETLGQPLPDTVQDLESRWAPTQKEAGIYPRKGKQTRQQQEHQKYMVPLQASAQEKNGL

SMILES	Rotarod performance (rats)	HepG2 toxicity (HepG2 cells)	Effect on nAChR(a4/b2) (nAChR(a4/b2))	MATE1 substrate (MATE1)	Effect on Vasopressin 1-2 (Vasopressin 1-2)	OAT1 substrate (OAT1)
O=C(Cc1cncc(-n2cc(Cl)c3cc(Cl)cc(Cl)c32)c1)N[C@@H]1COC[C@H]1O [Compound 661]	no effects on rotarod performance	no evidence of toxicity up to the compound's limit of solubility	–	–	–	–
O=C(Cc1nccc(-n2cc(Cl)c3cc(Cl)cc(Cl)c32)n1)NC1COCC1O (stereo not drawn) [Compound 760]	–	–	no effect	not a transporter substrate	no effect	not a transporter substrate
